From the NIST ThermoML archive (doi:10.1016/j.jct.2016.12.012)
Values joined by “and” are separate entries in the source; they are usually repeats but may differ in a detail not shown here. Equal values may be shown once.

Legend:
[1] = for Normal melting temperature: DTA
[2] = Molar enthalpy of transition or fusion; details: DSC

COc1ccc(C(C)=O)cc1 [4'-methoxyacetophenone]
[1]
Details	vapor or sublimation pressure [kPa]
296.23 K, Crystal, Closed cell (Static) method	0.00059
298.19 K, Crystal, Closed cell (Static) method	0.00075
300.19 K, Crystal, Closed cell (Static) method	0.00096
302.13 K, Metastable liquid, Closed cell (Static) method	0.00143
302.18 K, Crystal, Closed cell (Static) method	0.00121
304.14 K, Metastable liquid, Closed cell (Static) method	0.00174
304.15 K, Crystal, Closed cell (Static) method	0.00153
306.09 K, Metastable liquid, Closed cell (Static) method	0.00209
306.12 K, Crystal, Closed cell (Static) method	0.00192
308.1 K, Crystal, Closed cell (Static) method	0.00239
308.12 K, Metastable liquid, Closed cell (Static) method	0.00251
310.08 K, Metastable liquid, Closed cell (Static) method	0.00301
312.06 K, Closed cell (Static) method, Liquid	0.0036
314.2 K, Closed cell (Static) method, Liquid	0.00436
316.08 K, Closed cell (Static) method, Liquid	0.00516
318.02 K, Closed cell (Static) method, Liquid	0.0061
320.04 K, Closed cell (Static) method, Liquid	0.00716
321.98 K, Closed cell (Static) method, Liquid	0.00847
324.01 K, Closed cell (Static) method, Liquid	0.01002
326 K, Closed cell (Static) method, Liquid	0.01174
327.92 K, Closed cell (Static) method, Liquid	0.01375
329.93 K, Closed cell (Static) method, Liquid	0.01614
331.9 K, Closed cell (Static) method, Liquid	0.0189
333.88 K, Closed cell (Static) method, Liquid	0.02202
335.86 K, Closed cell (Static) method, Liquid	0.02563
337.93 K, Closed cell (Static) method, Liquid	0.02998
339.82 K, Closed cell (Static) method, Liquid	0.03463
341.89 K, Closed cell (Static) method, Liquid	0.04012
343.72 K, Closed cell (Static) method, Liquid	0.04593
345.84 K, Closed cell (Static) method, Liquid	0.05323
347.69 K, Closed cell (Static) method, Liquid	0.06033
349.8 K, Closed cell (Static) method, Liquid	0.06953
351.63 K, Closed cell (Static) method, Liquid	0.07823
353.72 K, Closed cell (Static) method, Liquid	0.09003
355.73 K, Closed cell (Static) method, Liquid	0.1035

Crystal
Details	Molar enthalpy of transition or fusion [kcal/mol]	Normal melting temperature [°C]
[1]	–	37.2
[2]	4.02	–

CC(=O)Oc1ccc(C(C)=O)cc1 [4-acetoxyacetophenone]
[1]
Details	vapor or sublimation pressure
298.12 K, Crystal 2, Calculated from knudsen effusion weight loss	9.3e-05 kPa
299.15 K, Crystal 2, Calculated from knudsen effusion weight loss	0.000105 kPa and 0.000106 kPa
300.3 K, Crystal 2, Calculated from knudsen effusion weight loss	0.000123 kPa
301.34 K, Crystal 2, Calculated from knudsen effusion weight loss	0.000143 kPa and 0.000142 kPa and 0.000141 kPa
302.25 K, Crystal 2, Calculated from knudsen effusion weight loss	0.000159 kPa
303.23 K, Crystal 2, Calculated from knudsen effusion weight loss	0.000185 kPa and 0.000184 kPa
304.1 K, Crystal 2, Calculated from knudsen effusion weight loss	0.000202 kPa and 0.000205 kPa
305.13 K, Crystal 2, Calculated from knudsen effusion weight loss	0.00023 kPa and 0.000232 kPa and 0.000229 kPa
306.26 K, Crystal 2, Calculated from knudsen effusion weight loss	0.000268 kPa and 0.000266 kPa
307.14 K, Crystal 2, Calculated from knudsen effusion weight loss	0.0003 kPa and 0.000301 kPa
308.25 K, Crystal 2, Calculated from knudsen effusion weight loss	0.000347 kPa and 0.000346 kPa
309.29 K, Crystal 2, Calculated from knudsen effusion weight loss	0.000397 kPa and 0.000395 kPa and 0.000394 kPa
315 K, Crystal 1, Closed cell (Static) method	0.00078 kPa
316 K, Crystal 1, Closed cell (Static) method	0.00087 kPa
317 K, Crystal 1, Closed cell (Static) method	0.00098 kPa
317.96 K, Crystal 1, Closed cell (Static) method	0.00109 kPa
318.99 K, Crystal 1, Closed cell (Static) method	0.00123 kPa
319.96 K, Crystal 1, Closed cell (Static) method	0.00139 kPa
321.01 K, Crystal 1, Closed cell (Static) method	0.00155 kPa
321.89 K, Crystal 1, Closed cell (Static) method	0.00173 kPa
322.88 K, Crystal 1, Closed cell (Static) method	0.00195 kPa
323.91 K, Crystal 1, Closed cell (Static) method	0.00218 kPa

[1], Liquid, Closed cell (Static) method
Details	vapor or sublimation pressure [kPa]
328.88 K	0.00341
330.91 K	0.00406
332.89 K	0.00478
334.84 K	0.00555
336.85 K	0.00658
338.81 K	0.00777
340.85 K	0.00908
342.77 K	0.01045
344.77 K	0.01225
346.74 K	0.01408
348.68 K	0.01633
350.65 K	0.01885
352.66 K	0.02182
354.62 K	0.02505
356.57 K	0.02907
358.59 K	0.03305
360.49 K	0.03795
362.51 K	0.04335
364.46 K	0.04961
366.46 K	0.05645
368.38 K	0.06404
370.41 K	0.07307
372.31 K	0.08205
374.34 K	0.09319
376.33 K	0.1048
378.32 K	0.1186

Details	Molar enthalpy of transition or fusion, Crystal 1 [kcal/mol]	Molar enthalpy of transition or fusion, Crystal 2 [kcal/mol]	Normal melting temperature, Crystal 1 [°C]	Triple point temperature, Crystal 2, DSC [K]
[1]	–	–	51.0	310.1
[2]	4.97	0.143	–	–
